The target of this assay is T1, ACE (angiotensin-I converting enzyme, from rabbit lung) (Oryctolagus cuniculus, UniProt P12822).
T1 sequence (P12822 34-1310): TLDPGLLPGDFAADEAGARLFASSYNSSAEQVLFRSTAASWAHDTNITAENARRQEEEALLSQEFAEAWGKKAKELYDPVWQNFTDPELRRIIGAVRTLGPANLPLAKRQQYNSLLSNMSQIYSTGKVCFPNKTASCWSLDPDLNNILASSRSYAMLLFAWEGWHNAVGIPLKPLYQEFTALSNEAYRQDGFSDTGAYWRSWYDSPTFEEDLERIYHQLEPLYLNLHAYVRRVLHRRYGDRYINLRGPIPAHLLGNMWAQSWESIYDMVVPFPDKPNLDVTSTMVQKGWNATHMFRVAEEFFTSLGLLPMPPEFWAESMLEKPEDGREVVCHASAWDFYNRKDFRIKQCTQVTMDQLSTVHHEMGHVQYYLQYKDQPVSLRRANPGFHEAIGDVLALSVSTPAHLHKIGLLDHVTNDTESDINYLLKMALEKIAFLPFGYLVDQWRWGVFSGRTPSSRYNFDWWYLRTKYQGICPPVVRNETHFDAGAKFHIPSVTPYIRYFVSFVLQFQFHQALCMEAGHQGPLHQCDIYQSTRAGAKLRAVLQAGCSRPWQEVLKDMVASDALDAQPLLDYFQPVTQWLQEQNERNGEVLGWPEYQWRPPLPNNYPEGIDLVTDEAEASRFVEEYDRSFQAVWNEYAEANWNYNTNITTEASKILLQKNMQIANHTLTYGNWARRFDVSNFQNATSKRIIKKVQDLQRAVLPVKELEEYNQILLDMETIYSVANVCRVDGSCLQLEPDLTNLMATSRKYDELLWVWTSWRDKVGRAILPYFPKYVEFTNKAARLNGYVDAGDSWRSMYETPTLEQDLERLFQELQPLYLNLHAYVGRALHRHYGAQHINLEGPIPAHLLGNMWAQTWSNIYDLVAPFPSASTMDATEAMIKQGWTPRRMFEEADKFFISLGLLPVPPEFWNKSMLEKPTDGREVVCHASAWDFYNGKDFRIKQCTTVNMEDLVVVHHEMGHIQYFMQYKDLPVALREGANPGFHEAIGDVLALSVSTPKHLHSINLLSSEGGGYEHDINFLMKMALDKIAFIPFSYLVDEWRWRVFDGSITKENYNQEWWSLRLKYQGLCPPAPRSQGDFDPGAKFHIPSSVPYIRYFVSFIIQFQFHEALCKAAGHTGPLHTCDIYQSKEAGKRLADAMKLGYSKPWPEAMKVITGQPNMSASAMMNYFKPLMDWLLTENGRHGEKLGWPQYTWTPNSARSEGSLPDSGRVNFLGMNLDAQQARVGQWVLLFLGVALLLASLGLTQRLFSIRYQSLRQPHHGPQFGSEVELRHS
Nature of the assay: hippuric acid release from HHL, cyanuric chloride colour at […] nm. In kind it is biochemical.

In the case of `NCCCC[C@H](N[C@@H](CCc1ccccc1)C(=O)O)C(=O)N1CCC[C@H]1C(=O)O` [Lisinopril], the half-inhibitory concentration (IC50) (as a rule, the concentration that gives 50% inhibition) was 764 nM.
